Experiments:
[1] = target: T1, hEP2 (Homo sapiens, UniProt P43116); test: hEP2 cAMP assay; type: cell-based; conditions: HEK293 cells overexpressing hEP2; PGE2 agonist 400 pM; graded per Table 21; read-out: IC50 (nM) EP2 cAMP
T1 construct: expressed in transfected cells; host or cells: HEK293
How it was run: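 HEK293 cells overexpressing hEP2, serum-starved 4 h, then 1,000 cells/well treated with compound (10 μM–0.001 nM) plus 400 pM PGE2 (about EC50-80) in HBSS buffer with 0.5 mM IBMX for 12 min at room temperature. cAMP measured by TR-FRET (665/615 nm) as % of DMSO control; IC50 from 4-parameter fit, median of repeats.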

[2] = target: T2, hEP4 (Homo sapiens, UniProt P35408); test: hEP4 cAMP assay; type: cell-based; conditions: HEK293 cells overexpressing hEP4; PGE2 agonist 20 nM; graded per Table 21; read-out: IC50 (nM) EP4 cAMP
T2 construct: expressed in transfected cells; host or cells: HEK293
How it was run: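 HEK293 cells overexpressing hEP4, starved 4 h, were treated with compound (10 μM-0.001 nM) plus 20 nM PGE2 (EC50-80) in HBSS buffer with 0.5 mM IBMX for 18.5 min at room temperature. cAMP was read by TR-FRET (665/615 nm) as % of DMSO control; IC50 from 4-parameter fit, median of multiple experiments.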

T2 sequence (P35408 whole entry): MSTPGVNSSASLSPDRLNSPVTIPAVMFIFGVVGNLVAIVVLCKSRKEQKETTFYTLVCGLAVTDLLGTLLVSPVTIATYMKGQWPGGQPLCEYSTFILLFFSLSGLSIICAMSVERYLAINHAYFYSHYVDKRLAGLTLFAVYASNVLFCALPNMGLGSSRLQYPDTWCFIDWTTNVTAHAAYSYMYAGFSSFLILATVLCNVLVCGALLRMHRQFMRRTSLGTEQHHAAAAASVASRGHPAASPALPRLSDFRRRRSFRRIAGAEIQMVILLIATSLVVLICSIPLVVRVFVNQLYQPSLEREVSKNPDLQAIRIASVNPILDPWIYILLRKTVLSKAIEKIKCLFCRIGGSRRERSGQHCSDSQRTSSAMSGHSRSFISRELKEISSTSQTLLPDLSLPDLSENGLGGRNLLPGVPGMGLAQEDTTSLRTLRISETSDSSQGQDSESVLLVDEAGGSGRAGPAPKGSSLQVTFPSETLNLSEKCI
T1 sequence (P43116 whole entry): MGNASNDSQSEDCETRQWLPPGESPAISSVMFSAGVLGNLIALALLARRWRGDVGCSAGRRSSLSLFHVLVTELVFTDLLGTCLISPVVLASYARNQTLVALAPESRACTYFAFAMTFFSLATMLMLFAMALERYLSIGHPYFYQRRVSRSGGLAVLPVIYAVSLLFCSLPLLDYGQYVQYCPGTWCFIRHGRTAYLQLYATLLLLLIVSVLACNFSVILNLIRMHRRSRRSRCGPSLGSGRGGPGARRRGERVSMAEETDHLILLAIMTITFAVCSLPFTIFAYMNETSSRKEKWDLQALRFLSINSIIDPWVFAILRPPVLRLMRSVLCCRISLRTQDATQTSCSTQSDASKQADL

IC50 [1] [nM]	IC50 [2] [nM]	SMILES
> 10000	5000 to 10000	Cc1sc(C)c(C(=O)NC2CC3(C2)CC(C(=O)O)C3)c1Cc1ccc(-c2ccc(S(C)(=O)=O)cc2)cc1 (stereo not shown) [Example 35, 6-(2,5-dimethyl-4-((4′-(methylsulfonyl)-[1,1′-biphenyl]-4-yl)methyl)thiophene-3-carboxamido)spiro[3.3]heptane-2-carboxylic acid]
< 500	< 500	[H][C@]1(C(=O)O)C[C@]2(C[C@H](NC(=O)c3c(C)sc(C)c3Cc3ccc(-c4cc(OC)cc(N5CCC5=O)c4)cc3)C2)C1 (stereo partly drawn) [Example 63, (2R,4R,6R)-6-(4-((3′-methoxy-5′-(2-oxoazetidin-1-yl)-[1,1′-biphenyl]-4-yl)methyl)-2,5-dimethylthiophene-3-carboxamido)spiro[3.3]heptane-2-carboxylic acid]
500 to 5000	500 to 5000	O=C(NC1CC2(C1)CC(C(=O)O)C2)c1sccc1Cc1ccc(-c2ccccc2)cc1 (stereo not shown) [Example 18, 6-(3-([1,1′-biphenyl]-4-ylmethyl)thiophene-2-carboxamido)spiro[3.3]heptane-2-carboxylic acid]
> 10000	> 10000	Cc1sc(C)c(C(=O)N[C@H]2CC3(C2)C[C@H](C(=O)O)C3)c1Cc1ccc(-c2ccccc2)cc1 (single isomer, unassigned) [Example 1a]
> 10000	> 10000	O=C(NC1CC2(C1)CC(C(=O)O)C2)c1csc2ccn(CCc3ccc(-c4ccccc4)cc3)c12 (stereo not shown) [Example 91, 6-(4-(2-([1,1′-biphenyl]-4-yl)ethyl)-4H-thieno[3,2-b]pyrrole-3-carboxamido)spiro[3.3]heptane-2-carboxylic acid]
500 to 5000	< 500	COc1cc(C#N)cc(-c2ccc(Cc3c(C)sc(C)c3C(=O)NC3CC4(C3)CC(C(=O)O)C4)cc2)c1 (stereo not shown) [Example 41, 6-(4-((3′-cyano-5′-methoxy-[1,1′-biphenyl]-4-yl)methyl)-2,5-dimethylthiophene-3-carboxamido)spiro[3.3]heptane-2-carboxylic acid]
> 10000	> 10000	Cc1sc(C)c(C(=O)NC2CC3(C2)CC(C(=O)O)C3)c1Nc1ccc(-c2ccccc2)cc1 (stereo not shown) [Example 75, 6-(4-([1,1′-biphenyl]-4-ylamino)-2,5-dimethylthiophene-3-carboxamido)spiro[3.3]heptane-2-carboxylic acid]
500 to 5000	< 500	COc1cccc(-c2ccc(Cc3c(C)sc(C)c3C(=O)NC3CC4(C3)CC(C(=O)O)C4)cc2)c1 (stereo not shown) [Example 29, 6-(4-((3′-methoxy-[1,1′-biphenyl]-4-yl)methyl)-2,5-dimethylthiophene-3-carboxamido)spiro[3.3]heptane-2-carboxylic acid]
< 500	< 500	COc1cc(OC)cc(-c2ccc(Cn3ccc4scc(C(=O)NC5CC6(C5)CC(C(=O)O)C6)c43)cc2)c1 (stereo not shown) [Example 89, 6-(4-((3′,5′-dimethoxy-[1,1′-biphenyl]-4-yl)methyl)-4H-thieno[3,2-b]pyrrole-3-carboxamido)spiro[3.3]heptane-2-carboxylic acid]
500 to 5000	500 to 5000	O=C(NC1CC2(C1)CC(C(=O)O)C2)c1csc2ccn(Cc3ccc(C(F)(F)F)cc3)c12 (stereo not shown) [Example 90, 6-(4-(4-(trifluoromethyl)benzyl)-4H-thieno[3,2-b]pyrrole-3-carboxamido)spiro[3.3]heptane-2-carboxylic acid]
500 to 5000	< 500	CSc1cc(F)cc(-c2ccc(Cc3c(C)sc(C)c3C(=O)NC3CC4(C3)CC(C(=O)O)C4)cc2)c1 (stereo not shown) [Example 55, 6-(4-((3′-fluoro-5′-(methylthio)-[1,1′-biphenyl]-4-yl)methyl)-2,5-dimethylthiophene-3-carboxamido)spiro[3.3]heptane-2-carboxylic acid]
500 to 5000	< 500	COc1cc(F)cc(-c2ccc(Cn3ccc4sc(C)c(C(=O)NC5CC6(C5)CC(C(=O)O)C6)c43)cc2)c1 (stereo not shown) [Example 95]
500 to 5000	< 500	O=C(NC1CC2(C1)CC(C(=O)O)C2)c1csc2ccn(Cc3ccc(-c4cncc(F)c4)cc3)c12 (stereo not shown) [Example 100, 6-(4-(4-(5-fluoropyridin-3-yl)benzyl)-4H-thieno[3,2-b]pyrrole-3-carboxamido)spiro[3.3]heptane-2-carboxylic acid]
< 500	< 500	COc1cc(F)cc(-c2ccc(Cc3c(C)sc(C)c3C(=O)N[C@H]3CC4(C3)C[C@H](C(=O)O)C4)cc2)c1 (single isomer, unassigned) [Example 34b]
500 to 5000	< 500	Cc1sc(C)c(C(=O)NC2CC3(C2)CC(C(=O)O)C3)c1Cc1ccc(-c2cc(F)cc(C(N)=O)c2)cc1 (stereo not shown) [Example 57, 6-(4-((3′-carbamoyl-5′-fluoro-[1,1′-biphenyl]-4-yl)methyl)-2,5-dimethylthiophene-3-carboxamido)spiro[3.3]heptane-2-carboxylic acid]

Further lines, the compound ahead of its results:

SMILES	IC50 [1] [nM]	IC50 [2] [nM]
O=C(NC1CC2(C1)CC(C(=O)O)C2)c1csc2ccn(Cc3ccc(-c4cccnc4)cc3)c12 (stereo not shown) [Example 99, 6-(4-(4-(pyridin-3-yl)benzyl)-4H-thieno[3,2-b]pyrrole-3-carboxamido)spiro[3.3]heptane-2-carboxylic acid]	> 10000	< 500
Cc1sc(C)c(C(=O)NC2CC3(C2)CC(C(=O)O)C3)c1Cc1ccc(Cl)cc1 (stereo not shown) [Example 23, 6-(4-(4-chlorobenzyl)-2,5-dimethylthiophene-3-carboxamido)spiro[3.3]heptane-2-carboxylic acid]	> 10000	> 10000
Cc1sc(C)c(C(=O)NC2CC3(C2)CC(C(=O)O)C3)c1Cc1ccc(-c2cc(F)cc(CO)c2)cc1 (stereo not shown) [Example 60, 6-(4-((3′-fluoro-5′-(hydroxymethyl)-[1,1′-biphenyl]-4-yl)methyl)-2,5-dimethylthiophene-3-carboxamido)spiro[3.3]heptane-2-carboxylic acid]	5000 to 10000	< 500
Cc1sc2ccn(CC#Cc3ccccc3)c2c1C(=O)NC1CC2(C1)CC(C(=O)O)C2 (stereo not shown) [Example 96, 6-(2-methyl-4-(3-phenylprop-2-yn-1-yl)-4H-thieno[3,2-b]pyrrole-3-carboxamido)spiro[3.3]heptane-2-carboxylic acid]	> 10000	500 to 5000
Cc1sc(C)c(C(=O)NC2CC3(C2)CC(C(=O)O)C3)c1CN1CCN(c2ccccc2)CC1 (stereo not shown) [Example 77, 6-(2,5-dimethyl-4-((4-phenylpiperazin-1-yl)methyl)thiophene-3-carboxamido)spiro[3.3]heptane-2-carboxylic acid]	> 10000	> 10000
Cc1sc(C)c(C(=O)NC2CC3(C2)CC(C(=O)O)C3)c1Cc1ccc(-c2ccccc2)cc1 (stereo not shown) [Example 1, 6-(4-([1,1′-biphenyl]-4-ylmethyl)-2,5-dimethylthiophene-3-carboxamido)spiro[3.3]heptane-2-carboxylic acid]	500 to 5000	< 500
COc1cccc(-c2ccc(Cn3ccc4scc(C(=O)NC5CC6(C5)CC(C(=O)O)C6)c43)cc2)n1 (stereo not shown) [Example 108, 6-(4-(4-(6-methoxypyridin-2-yl)benzyl)-4H-thieno[3,2-b]pyrrole-3-carboxamido)spiro[3.3]heptane-2-carboxylic acid]	500 to 5000	< 500
O=C(NC1CC2(C1)CC(C(=O)O)C2)c1csc2ccn(Cc3ccc(-c4ccccc4)nc3)c12 (stereo not shown) [Example 105, 6-(4-((6-phenylpyridin-3-yl)methyl)-4H-thieno[3,2-b]pyrrole-3-carboxamido)spiro[3.3]heptane-2-carboxylic acid]	500 to 5000	< 500
Cc1sc(C)c(C(=O)NC2CC3(C2)CC(C(=O)O)C3)c1Cc1ccc(-c2cc(F)cc(OC(C)C)c2)cc1 (stereo not shown) [Example 46, 6-(4-((3′-fluoro-5′-isopropoxy-[1,1′-biphenyl]-4-yl)methyl)-2,5-dimethylthiophene-3-carboxamido)spiro[3.3]heptane-2-carboxylic acid]	500 to 5000	500 to 5000
O=C(NC1CC2(C1)CC(C(=O)O)C2)c1csc2ccn(Cc3ccc4c(ccn4Cc4ccccc4)c3)c12 (stereo not shown) [Example 103, 6-(4-((1-benzyl-IH-indol-5-yl)methyl)-4H-thieno[3,2-b]pyrrole-3-carboxamido)spiro[3.3]heptane-2-carboxylic acid]	> 10000	< 500
O=C(NC1CC2(C1)CC(C(=O)O)C2)c1c(Cl)sc2ccn(Cc3ccc(-c4ccccc4)cc3)c12 (stereo not shown) [Example 82, 6-(4-([1,1′-biphenyl]-4-ylmethyl)-2-chloro-4H-thieno[3,2-b]pyrrole-3-carboxamido)spiro[3.3]heptane-2-carboxylic acid]	500 to 5000	< 500
O=C(NC1CC2(C1)CC(C(=O)O)C2)c1csc2ccn(Cc3ccc(-c4ncccn4)cc3)c12 (stereo not shown) [Example 93, 6-(4-(4-(pyrimidin-2-yl)benzyl)-4H-thieno[3,2-b]pyrrole-3-carboxamido)spiro[3.3]heptane-2-carboxylic acid]	5000 to 10000	500 to 5000
CCc1ccc(-c2ccc(Cc3c(C)sc(C)c3C(=O)NC3CC4(C3)CC(C(=O)O)C4)cc2)cc1 (stereo not shown) [Example 31, 6-(4-((4′-ethyl-[1,1′-biphenyl]-4-yl)methyl)-2,5-dimethylthiophene-3-carboxamido)spiro[3.3]heptane-2-carboxylic acid]	5000 to 10000	< 500
O=C(N[C@H]1CC2(C1)C[C@H](C(=O)O)C2)c1csc2ccn(Cc3ccc(-c4ccccc4)cc3)c12 (single isomer, unassigned) [Example 79a]	500 to 5000	500 to 5000

— patent US20230365582A1, “NOVEL COMPOUNDS HAVING INHIBITORY ACTIVITY ON PROSTAGLANDIN E2 RECEPTOR AND USES THEREOF” (KANAPH THERAPEUTICS INC., priority 2020, published 2023)
